# According to patent publication US20100099561A1, “HETEROBICYCLIC ALKYLTHIO-BRIDGED ISOXAZOLINES” (E.I. DU PONT DE NEMOURS AND COMPANY, priority 2008, published 2010):
# What was measured:
# Type in all cases: in vivo
# [1] = tested on: large crabgrass (Digitaria sanguinalis); experiment: Test A preemergence, large crabgrass; details: 0 to 100 scale (0 no effect, 100 complete control)
# How it was run: (§1)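 Visual injury rating, 0 = no effect to 100 = complete control, made roughly ten days after treatment by comparison with untreated controls. Preemergence: directed soil spray onto freshly planted loam/sand. Postemergence: foliar application at one- to two-leaf stage, 2–10 cm height.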
# [2] = tested on: giant foxtail (Setaria faberi); experiment: Test A preemergence, giant foxtail; details: 0 to 100 scale (0 no effect, 100 complete control)
# How it was run: as §1
# [3] = tested on: morningglory (Ipomoea spp.); experiment: Test A preemergence, morningglory; details: 0 to 100 scale (0 no effect, 100 complete control)
# How it was run: as §1
# [4] = tested on: pigweed (Amaranthus retroflexus); experiment: Test A preemergence, pigweed; details: 0 to 100 scale (0 no effect, 100 complete control)
# How it was run: as §1
# [5] = tested on: velvetleaf (Abutilon theophrasti); experiment: Test A preemergence, velvetleaf; details: 0 to 100 scale (0 no effect, 100 complete control)
# How it was run: as §1
# [6] = tested on: wheat (Triticum aestivum); experiment: Test A preemergence, wheat; details: 0 to 100 scale (0 no effect, 100 complete control)
# How it was run: as §1
# [7] = tested on: large crabgrass (Digitaria sanguinalis); experiment: Test A postemergence, large crabgrass; details: 0 to 100 scale (0 no effect, 100 complete control)
# How it was run: as §1
# [8] = tested on: giant foxtail (Setaria faberi); experiment: Test A postemergence, giant foxtail; details: 0 to 100 scale (0 no effect, 100 complete control)
# How it was run: as §1
# [9] = tested on: pigweed (Amaranthus retroflexus); experiment: Test A postemergence, pigweed; details: 0 to 100 scale (0 no effect, 100 complete control)
# How it was run: as §1
# [10] = tested on: velvetleaf (Abutilon theophrasti); experiment: Test A postemergence, velvetleaf; details: 0 to 100 scale (0 no effect, 100 complete control)
# How it was run: as §1
# [11] = tested on: wheat (Triticum aestivum); experiment: Test A postemergence, wheat; details: 0 to 100 scale (0 no effect, 100 complete control)
# How it was run: as §1
# [12] = tested on: wheat (Triticum aestivum); experiment: Test B preemergence, wheat; details: Preemergence, scale 0 to 100
# Excerpt: (§2) Seeds of plant species selected from blackgrass (Alopecurus myosuroides), downy bromegrass (Bromus tectorum), green foxtail (Setaria viridis), Italian ryegrass (Lolium multiflorum), wheat (Triticum aestivum), wild oat (Avena fatua), catchweed bedstraw (Galium aparine), bermudagrass (Cynodon dactylon), Surinam grass (Brachiaria decumbens), cocklebur (Xanthium strumarium), corn (Zea mays), large crabgrass (Digitaria sanguinalis), woolly cupgrass (Eriochloa villosa), giant foxtail (Setaria faberii), goosegrass (Eleusine indica), johnsongrass (Sorghum halepense), kochia (Kochia scoparia), lambsquarters (Chenopodium album), morningglory (Ipomoea coccinea), nightshade (eastern black nightshade, Solanum ptycanthum), yellow nutsedge (Cyperus esculentus), pigweed (Amaranthus retroflexus), ragweed (common ragweed, Ambrosia elatior), soybean (Glycine max), sunflower (common oilseed sunflower, Helianthus annuus), Russian thistle (Salsola kali), and velvetleaf (Abutilon theophrasti) were planted into a blend of loam soil and sand and treated preemergence with test compounds formulated in a non-phytotoxic solvent mixture which included a surfactant. Treated plants and controls were maintained in a greenhouse for 13 to 15 days, after which time all species were compared to controls and visually evaluated. Plant response ratings, summarized in Table B, are based on a scale of 0 to 100 where 0 is no effect and 100 is complete control. A dash (-) response means no test result.
# wild oat (Avena fatua) = experiment: Test B preemergence, wild oat; details: scale 0 to 100
# Excerpt: as §2
# corn (Zea mays) = experiment: Test B preemergence, corn; details: scale 0 to 100
# Excerpt: as §2
# [13] = tested on: giant foxtail (Setaria faberii); experiment: Test B preemergence, giant foxtail; details: scale 0 to 100
# Excerpt: as §2
# [14] = tested on: johnsongrass (Sorghum halepense); experiment: Test B preemergence, johnsongrass; details: scale 0 to 100
# Excerpt: as §2
# [15] = tested on: morningglory (Ipomoea coccinea); experiment: Test B preemergence, morningglory; details: scale 0 to 100
# Excerpt: as §2
# [16] = tested on: nightshade (eastern black nightshade, Solanum ptycanthum); experiment: Test B preemergence, nightshade; details: scale 0 to 100
# Excerpt: as §2
# rice (Oryza sativa) = experiment: Test B flooded paddy test, rice; details: Flood, scale 0 to 100
# How it was run: (§3)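 Compounds were added directly to paddy water over 2-leaf-stage plants in pots flooded 3 cm above soil, water depth maintained. Visual injury scored against controls after 13 to 15 days in greenhouse, 0 (none) to 100 (complete control); dash indicates no result.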
# [17] = tested on: ducksalad (Heteranthera limosa); experiment: Test B flooded paddy test, ducksalad; details: Flood, scale 0 to 100
# How it was run: as §3
structure (smiles),measurement,setting,value
CC1(C)CC(S(=O)(=O)Cc2c(C(F)(F)C(F)(F)F)nc3n(c2=O)CCC3)=NO1 [Compound 22],"Plant response rating, Crabgrass, Large",[1]; 125 g ai/ha,90
same,"Plant response rating, Crabgrass, Large",[1]; 500 g ai/ha,100
same,"Plant response rating, Foxtail, Giant",[2]; 125 g ai/ha,90
same,"Plant response rating, Foxtail, Giant",[2]; 500 g ai/ha,100
same,"Plant response rating, Morningglory",[3]; 125 g ai/ha,50
same,"Plant response rating, Morningglory",[3]; 500 g ai/ha,80
same,"Plant response rating, Pigweed",[4]; 125 g ai/ha,10
same,"Plant response rating, Pigweed",[4]; 500 g ai/ha,90
same,"Plant response rating, Velvetleaf",[5]; 125 g ai/ha,30
same,"Plant response rating, Velvetleaf",[5]; 500 g ai/ha,90
same,"Plant response rating, Wheat",[6]; 125 g ai/ha,0
same,"Plant response rating, Wheat",[6]; 500 g ai/ha,50
same,"Plant response rating, Crabgrass, Large",[7]; 125 g ai/ha,70
same,"Plant response rating, Crabgrass, Large",[7]; 500 g ai/ha,80
same,"Plant response rating, Foxtail, Giant",[8]; 125 g ai/ha,70
same,"Plant response rating, Foxtail, Giant",[8]; 500 g ai/ha,80
same,"Plant response rating, Pigweed",[9]; 125 g ai/ha,0
same,"Plant response rating, Pigweed",[9]; 500 g ai/ha,40
same,"Plant response rating, Velvetleaf",[10]; 125 g ai/ha,20
same,"Plant response rating, Velvetleaf",[10]; 500 g ai/ha,60
same,"Plant response rating, Wheat",[11]; 125 g ai/ha,20
same,"Plant response rating, Wheat",[11]; 500 g ai/ha,50
same,"Plant response rating, Wheat",[12]; 16 g ai/ha,0
same,"Plant response rating, Wheat",[12]; 31 g ai/ha,0
same,"Plant response rating, Wheat",[12]; 62 g ai/ha,0
same,"Plant response rating, Wheat",[12]; 125 g ai/ha,10
same,"Plant response rating, Oat, Wild",wild oat (Avena fatua); 16 g ai/ha,0
same,"Plant response rating, Oat, Wild",wild oat (Avena fatua); 31 g ai/ha,0
same,"Plant response rating, Oat, Wild",wild oat (Avena fatua); 62 g ai/ha,30
same,"Plant response rating, Oat, Wild",wild oat (Avena fatua); 125 g ai/ha,40
same,"Plant response rating, Corn",corn (Zea mays); 16 g ai/ha,0
same,"Plant response rating, Corn",corn (Zea mays); 31 g ai/ha,0
same,"Plant response rating, Corn",corn (Zea mays); 62 g ai/ha,0
same,"Plant response rating, Corn",corn (Zea mays); 125 g ai/ha,10
same,"Plant response rating, Foxtail, Giant",[13]; 16 g ai/ha,50
same,"Plant response rating, Foxtail, Giant",[13]; 31 g ai/ha,50
same,"Plant response rating, Foxtail, Giant",[13]; 62 g ai/ha,90
same,"Plant response rating, Foxtail, Giant",[13]; 125 g ai/ha,100
same,"Plant response rating, Johnsongrass",[14]; 16 g ai/ha,0
same,"Plant response rating, Johnsongrass",[14]; 31 g ai/ha,10
same,"Plant response rating, Johnsongrass",[14]; 62 g ai/ha,65
same,"Plant response rating, Johnsongrass",[14]; 125 g ai/ha,98
same,"Plant response rating, Morningglory",[15]; 16 g ai/ha,0
same,"Plant response rating, Morningglory",[15]; 31 g ai/ha,0
same,"Plant response rating, Morningglory",[15]; 62 g ai/ha,70
same,"Plant response rating, Morningglory",[15]; 125 g ai/ha,100
same,"Plant response rating, Nightshade",[16]; 16 g ai/ha,0
same,"Plant response rating, Nightshade",[16]; 31 g ai/ha,60
same,"Plant response rating, Nightshade",[16]; 62 g ai/ha,90
same,"Plant response rating, Nightshade",[16]; 125 g ai/ha,100
same,"Plant response rating, Rice",rice (Oryza sativa); 62 g ai/ha,0
same,"Plant response rating, Rice",rice (Oryza sativa); 250 g ai/ha,10
same,"Plant response rating, Ducksalad",[17]; 62 g ai/ha,0
same,"Plant response rating, Ducksalad",[17]; 250 g ai/ha,0
"CC1(C)CC(S(=O)(=O)Cc2c(C(F)(F)F)nc3n(c2=O)CCO3)=NO1 [Compound 2, 6-[[(4,5-dihydro-5,5-dimethyl-3-isoxazolyl)sulfonyl]methyl]-2,3-dihydro-7-(trifluoromethyl)-5H-oxazolo[3,2-α]pyrimidin-5-one]","Plant response rating, Crabgrass, Large",[1]; 125 g ai/ha,90
same,"Plant response rating, Crabgrass, Large",[1]; 500 g ai/ha,100
same,"Plant response rating, Foxtail, Giant",[2]; 125 g ai/ha,90
same,"Plant response rating, Foxtail, Giant",[2]; 500 g ai/ha,100
same,"Plant response rating, Morningglory",[3]; 125 g ai/ha,0
same,"Plant response rating, Morningglory",[3]; 500 g ai/ha,80
same,"Plant response rating, Pigweed",[4]; 125 g ai/ha,20
same,"Plant response rating, Pigweed",[4]; 500 g ai/ha,60
same,"Plant response rating, Velvetleaf",[5]; 125 g ai/ha,10
same,"Plant response rating, Velvetleaf",[5]; 500 g ai/ha,90
same,"Plant response rating, Wheat",[6]; 125 g ai/ha,10
same,"Plant response rating, Wheat",[6]; 500 g ai/ha,60
same,"Plant response rating, Crabgrass, Large",[7]; 125 g ai/ha,60
same,"Plant response rating, Crabgrass, Large",[7]; 500 g ai/ha,90
same,"Plant response rating, Foxtail, Giant",[8]; 125 g ai/ha,50
same,"Plant response rating, Foxtail, Giant",[8]; 500 g ai/ha,80
same,"Plant response rating, Pigweed",[9]; 125 g ai/ha,20
same,"Plant response rating, Pigweed",[9]; 500 g ai/ha,60
same,"Plant response rating, Velvetleaf",[10]; 125 g ai/ha,30
same,"Plant response rating, Velvetleaf",[10]; 500 g ai/ha,60
same,"Plant response rating, Wheat",[11]; 125 g ai/ha,0
same,"Plant response rating, Wheat",[11]; 500 g ai/ha,60
same,"Plant response rating, Wheat",[12]; 16 g ai/ha,0
same,"Plant response rating, Wheat",[12]; 31 g ai/ha,0
same,"Plant response rating, Wheat",[12]; 62 g ai/ha,0
same,"Plant response rating, Oat, Wild",wild oat (Avena fatua); 8 g ai/ha,0
same,"Plant response rating, Oat, Wild",wild oat (Avena fatua); 16 g ai/ha,0
same,"Plant response rating, Oat, Wild",wild oat (Avena fatua); 31 g ai/ha,0
same,"Plant response rating, Oat, Wild",wild oat (Avena fatua); 62 g ai/ha,25
same,"Plant response rating, Corn",corn (Zea mays); 8 g ai/ha,0
same,"Plant response rating, Corn",corn (Zea mays); 16 g ai/ha,0
same,"Plant response rating, Corn",corn (Zea mays); 31 g ai/ha,0
same,"Plant response rating, Corn",corn (Zea mays); 62 g ai/ha,20
same,"Plant response rating, Foxtail, Giant",[13]; 8 g ai/ha,0
same,"Plant response rating, Foxtail, Giant",[13]; 16 g ai/ha,50
same,"Plant response rating, Foxtail, Giant",[13]; 31 g ai/ha,70
same,"Plant response rating, Foxtail, Giant",[13]; 62 g ai/ha,98
same,"Plant response rating, Johnsongrass",[14]; 8 g ai/ha,0
same,"Plant response rating, Johnsongrass",[14]; 16 g ai/ha,10
same,"Plant response rating, Johnsongrass",[14]; 31 g ai/ha,30
same,"Plant response rating, Johnsongrass",[14]; 62 g ai/ha,80
same,"Plant response rating, Morningglory",[15]; 8 g ai/ha,0
same,"Plant response rating, Morningglory",[15]; 16 g ai/ha,0
same,"Plant response rating, Morningglory",[15]; 31 g ai/ha,0
same,"Plant response rating, Morningglory",[15]; 62 g ai/ha,0
same,"Plant response rating, Nightshade",[16]; 8 g ai/ha,0
same,"Plant response rating, Nightshade",[16]; 16 g ai/ha,0
same,"Plant response rating, Nightshade",[16]; 31 g ai/ha,0
same,"Plant response rating, Nightshade",[16]; 62 g ai/ha,0
same,"Plant response rating, Rice",rice (Oryza sativa); 62 g ai/ha,0
same,"Plant response rating, Rice",rice (Oryza sativa); 250 g ai/ha,0
same,"Plant response rating, Ducksalad",[17]; 62 g ai/ha,0
same,"Plant response rating, Ducksalad",[17]; 250 g ai/ha,0
